Activity calls are given as the source filed them.
Key:
[1] = molecular target: T1, Probable nicotinate-nucleotide adenylyltransferase (Staphylococcus aureus (strain N315), UniProt P65502); type: functional, Staphylococcus aureus subsp. aureus N315; settings: read-out: IC50_Mean;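 as to IC50 Mean: confirmatory dose-response retesting of NadD inhibitor hits first found in an ultra-high-throughput screen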
[2] = molecular target: T1, Probable nicotinate-nucleotide adenylyltransferase; type: functional, Staphylococcus aureus subsp. aureus N315
[3] = molecular target: Dual specificity protein phosphatase 3 (Homo sapiens, UniProt P51452); assay: VHR phosphatase inhibition, dose response, selectivity assay for STEP inhibitor project, biochemical (AID 602374); type: functional; settings: read-out: IC50_Mean
[4] = molecular target: T2, Small ubiquitin-related modifier 1 (Homo sapiens, UniProt P63165); assay: SUMO1 protein interaction blockers, potency – biochemical, fluorescence polarization, uHTS hits, dose response (AID 624382); type: functional; settings: read-out: IC50_Mean
[5] = molecular target: Tyrosine-protein phosphatase non-receptor type 11 (Homo sapiens, UniProt Q06124); assay: PTPN11 enzyme inhibitors – biochemical, selectivity assay for STEP inhibitor project, dose response (AID 602367); type: functional; settings: read-out: IC50_Mean
[6] = molecular target: Tyrosine-protein phosphatase non-receptor type 5 (Homo sapiens, UniProt P54829); assay: PTPN5 enzyme inhibition – biochemical, fluorescence intensity, uHTS hits, confirmation (AID 602372); type: functional; settings: read-out: IC50_Mean
[7] = molecular target: Eukaryotic translation initiation factor 4E (Mus musculus, UniProt P63073); assay: blockers of eIF4G binding by eIF4E – biochemical, TR-FRET, dose response (AID 855); type: functional;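 also: potency for disrupting eIF4E binding to eIF4GI seen as loss of FRET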
[8] = molecular target: T2, Small ubiquitin-related modifier 1; assay: SUMO1 protein-protein binding blockers, potency – biochemical, FRET, dose response (AID 624383); type: functional; settings: read-out: IC50_Mean
[9] = molecular target: T3, Calpain-2 catalytic subunit (Sus scrofa, UniProt P43367); assay: m-calpain protease blockers, concentration series – biochemical, fluorogenic peptide substrate, dose response (AID 1420); type: functional
T3 sequence (P43367 whole entry): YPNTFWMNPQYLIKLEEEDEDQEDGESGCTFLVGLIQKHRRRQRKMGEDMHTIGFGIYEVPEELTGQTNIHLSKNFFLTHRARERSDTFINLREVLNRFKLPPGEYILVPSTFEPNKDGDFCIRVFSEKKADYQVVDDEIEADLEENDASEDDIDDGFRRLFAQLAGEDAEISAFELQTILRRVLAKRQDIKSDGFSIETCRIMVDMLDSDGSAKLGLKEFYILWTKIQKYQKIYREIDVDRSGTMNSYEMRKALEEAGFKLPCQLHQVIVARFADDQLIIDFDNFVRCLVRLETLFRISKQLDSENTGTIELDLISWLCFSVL

[10] = molecular target: Nuclear receptor subfamily 5 group A member 2 (Homo sapiens, UniProt O00482); type: functional, cell-based;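 also: HEK293T cells transfected with LRH-1 and a StAR promoter luciferase reporter; potency for inhibitors that lower LRH-1 driven reporter light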
Steroidogenic factor 1 = Steroidogenic factor 1 (Homo sapiens, UniProt Q13285); assay: Counterscreen for inverse agonists of the liver receptor homolog-1 (LRH-1; NR5A2): Luminescence-based cell-based high throughput dose response assay to identify inverse agonists of the Steroidogenic Factor 1 Nuclear Receptor (SF1; NR5A1).; type: functional
[11] = nonselective StAR promoter luciferase inhibitors – cell-based, luminescence, luciferase reporter, counter-screen for LRH-1 inverse agonist project, dose response (AID 651969); type: functional
[12] = molecular target: Adenosylmethionine-8-amino-7-oxononanoate aminotransferase (Mycobacterium tuberculosis, UniProt P9WQ81); assay: Mycobacterium tuberculosis BioA enzyme inhibitor Measured in Biochemical System Using Plate Reader - 2163-02_Inhibitor_Dose_CherryPick_Activity.; type: functional, Mycobacterium tuberculosis UT205
[13] = molecular target: T4, RNA-binding protein pos-1 (Caenorhabditis elegans, UniProt G5EF15); assay: disruptors of C. elegans POS-1 RNA interaction – biochemical, fluorescence polarization, dose response (AID 1964);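 also: purified POS-1 fused to maltose binding protein made in E. coli; potency of compounds blocking POS-1 binding to fluorescent RNA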
T4 sequence (G5EF15 whole entry): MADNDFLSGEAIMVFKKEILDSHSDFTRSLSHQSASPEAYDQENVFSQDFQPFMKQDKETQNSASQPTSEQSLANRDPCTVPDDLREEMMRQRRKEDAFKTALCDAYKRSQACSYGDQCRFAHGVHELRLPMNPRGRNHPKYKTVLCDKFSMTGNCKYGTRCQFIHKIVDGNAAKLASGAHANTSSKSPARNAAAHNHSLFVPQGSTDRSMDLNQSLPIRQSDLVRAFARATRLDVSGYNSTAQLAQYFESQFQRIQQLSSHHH

Protein RecA = molecular target: T5, Protein RecA (Mycobacterium tuberculosis, UniProt P9WHJ3); assay: Fluorescence Cell-Free Homogeneous Dose Retest to Identify Inhibitors of RecA-Intein Splicing Activity. [Related pubchem assays (depositor defined):AID2097, AID2223, AID489010, AID492950]; type: functional
T5 sequence (P9WHJ3 whole entry): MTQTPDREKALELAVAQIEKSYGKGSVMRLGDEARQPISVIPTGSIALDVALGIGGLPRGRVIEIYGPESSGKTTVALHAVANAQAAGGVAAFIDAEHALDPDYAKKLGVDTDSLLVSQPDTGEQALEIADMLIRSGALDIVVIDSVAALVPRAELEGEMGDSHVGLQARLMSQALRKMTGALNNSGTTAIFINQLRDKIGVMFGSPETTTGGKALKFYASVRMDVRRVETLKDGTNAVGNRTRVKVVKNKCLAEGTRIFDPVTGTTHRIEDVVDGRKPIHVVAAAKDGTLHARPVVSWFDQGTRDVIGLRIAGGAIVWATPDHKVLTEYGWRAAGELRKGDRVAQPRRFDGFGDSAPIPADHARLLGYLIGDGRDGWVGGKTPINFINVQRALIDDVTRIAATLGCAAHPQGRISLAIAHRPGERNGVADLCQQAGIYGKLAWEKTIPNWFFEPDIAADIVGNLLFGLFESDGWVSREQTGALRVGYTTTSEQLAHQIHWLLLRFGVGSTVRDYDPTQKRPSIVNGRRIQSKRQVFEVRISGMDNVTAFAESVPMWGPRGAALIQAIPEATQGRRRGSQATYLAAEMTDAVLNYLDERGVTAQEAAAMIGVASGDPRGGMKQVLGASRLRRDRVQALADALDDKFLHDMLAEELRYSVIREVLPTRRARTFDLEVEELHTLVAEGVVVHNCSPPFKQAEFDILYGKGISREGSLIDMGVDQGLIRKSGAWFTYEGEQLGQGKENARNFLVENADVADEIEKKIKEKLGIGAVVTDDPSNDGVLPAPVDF

Streptokinase A = molecular target: T6, Streptokinase A (Streptococcus pyogenes serotype M1, UniProt P10520); assay: viability-normalized secreted streptokinase activity reduction – plasminogen activation absorbance, OD405, dose response (AID 1914); type: functional, Streptococcus pyogenes M1 GAS;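 also: secreted streptokinase activity via plasminogen activation per viability signal from cell pellet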
T6 sequence (P10520 whole entry): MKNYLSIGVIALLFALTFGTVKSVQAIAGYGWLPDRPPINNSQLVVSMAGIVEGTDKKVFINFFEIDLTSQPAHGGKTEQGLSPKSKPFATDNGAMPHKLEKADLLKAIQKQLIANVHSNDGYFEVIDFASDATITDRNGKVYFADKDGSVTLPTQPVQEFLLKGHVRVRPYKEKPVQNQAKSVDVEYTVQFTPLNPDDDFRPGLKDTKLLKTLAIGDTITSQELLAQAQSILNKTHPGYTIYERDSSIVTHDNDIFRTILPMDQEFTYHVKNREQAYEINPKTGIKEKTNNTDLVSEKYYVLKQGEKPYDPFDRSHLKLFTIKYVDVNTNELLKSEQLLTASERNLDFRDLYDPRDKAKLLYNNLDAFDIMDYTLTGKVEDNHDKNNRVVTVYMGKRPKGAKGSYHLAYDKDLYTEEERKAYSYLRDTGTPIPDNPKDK

[14] = tested on: Streptococcus sp. 'group A'; assay: Streptococcus pyogenes SK(-)GAS viability under kanamycin – luminescence, BacTiterGlo, confirmation, counter-screen for streptokinase expression inhibitor project, dose response (AID 1900); type: functional, organism-based
[15] = molecular target: 72 kDa type IV collagenase (Homo sapiens, UniProt P08253); assay: Dose Response validation of uHTS RPN11 inhibitor hits using a MMP-2 Fluorescence assay.; type: functional
Prothrombin = Prothrombin (Bos taurus, UniProt P00735); assay: thrombin protease inhibitors – biochemical, fluorescence polarization, uHTS hits, dose response (AID 602369); type: functional
Streptococcus = assay: GAS UMAA2166 growth inhibition – luminescence, BacTiterGlo, counter-screen for streptokinase expression inhibitor project, dose response (AID 1915); type: functional, organism-based;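 also: potency for reduction of bacterial viability or growth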
[16] = molecular target: 26S proteasome non-ATPase regulatory subunit 14 (Homo sapiens, UniProt O00487); assay: inhibition of proteasome subunit RPN11 – biochemical, fluorescence polarization, uHTS hits, confirmation (AID 602368); type: functional
[17] = molecular target: T7, Zinc finger protein mex-5 (Caenorhabditis elegans, UniProt Q9XUB2); assay: potency of MEX-5 RNA-binding blockers – biochemical, C. elegans, fluorescence polarization, dose response (AID 1960)
T7 sequence (Q9XUB2 whole entry): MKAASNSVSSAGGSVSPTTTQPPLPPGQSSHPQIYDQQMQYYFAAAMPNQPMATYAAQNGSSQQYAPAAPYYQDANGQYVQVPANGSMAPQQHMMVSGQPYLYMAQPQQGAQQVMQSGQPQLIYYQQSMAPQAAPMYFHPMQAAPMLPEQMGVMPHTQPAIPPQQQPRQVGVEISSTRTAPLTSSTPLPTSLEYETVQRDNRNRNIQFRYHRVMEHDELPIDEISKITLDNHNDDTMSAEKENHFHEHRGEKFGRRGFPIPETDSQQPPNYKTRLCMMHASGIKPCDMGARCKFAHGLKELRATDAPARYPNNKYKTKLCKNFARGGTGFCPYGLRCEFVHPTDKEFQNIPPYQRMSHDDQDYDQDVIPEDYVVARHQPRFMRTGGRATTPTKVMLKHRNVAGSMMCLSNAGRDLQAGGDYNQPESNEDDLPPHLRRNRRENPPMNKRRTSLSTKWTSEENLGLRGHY

[18] = molecular target: T8, Replicative DNA helicase DnaB (Mycobacterium tuberculosis, UniProt P9WMR3); assay: DnaB intein splicing inhibitors, dose response, biochemical, cell-free fluorescence (AID 449749); type: functional
T8 sequence (P9WMR3 whole entry): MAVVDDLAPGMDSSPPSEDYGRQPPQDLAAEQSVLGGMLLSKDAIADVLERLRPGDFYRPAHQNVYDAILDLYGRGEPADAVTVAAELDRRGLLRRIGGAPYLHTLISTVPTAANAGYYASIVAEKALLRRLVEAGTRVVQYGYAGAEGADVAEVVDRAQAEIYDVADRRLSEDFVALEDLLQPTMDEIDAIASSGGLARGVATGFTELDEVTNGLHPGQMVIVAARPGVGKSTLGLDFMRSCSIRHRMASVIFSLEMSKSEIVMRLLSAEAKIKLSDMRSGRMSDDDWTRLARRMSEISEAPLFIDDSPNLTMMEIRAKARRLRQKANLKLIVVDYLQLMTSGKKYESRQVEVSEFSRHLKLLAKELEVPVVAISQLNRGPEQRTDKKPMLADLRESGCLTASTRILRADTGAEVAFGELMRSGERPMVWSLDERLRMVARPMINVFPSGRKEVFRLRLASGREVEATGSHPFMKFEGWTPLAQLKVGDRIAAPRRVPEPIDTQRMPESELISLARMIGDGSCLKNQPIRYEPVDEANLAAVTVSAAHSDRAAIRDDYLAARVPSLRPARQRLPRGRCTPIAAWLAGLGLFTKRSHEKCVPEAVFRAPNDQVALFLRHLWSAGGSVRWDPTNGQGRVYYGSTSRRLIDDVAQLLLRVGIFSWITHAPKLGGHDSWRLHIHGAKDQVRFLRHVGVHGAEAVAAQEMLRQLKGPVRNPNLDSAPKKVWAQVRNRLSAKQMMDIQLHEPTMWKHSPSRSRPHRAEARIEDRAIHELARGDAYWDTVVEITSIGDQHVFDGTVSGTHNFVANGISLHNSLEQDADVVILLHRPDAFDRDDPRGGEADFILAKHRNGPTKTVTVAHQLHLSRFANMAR

T1 sequence (P65502 whole entry): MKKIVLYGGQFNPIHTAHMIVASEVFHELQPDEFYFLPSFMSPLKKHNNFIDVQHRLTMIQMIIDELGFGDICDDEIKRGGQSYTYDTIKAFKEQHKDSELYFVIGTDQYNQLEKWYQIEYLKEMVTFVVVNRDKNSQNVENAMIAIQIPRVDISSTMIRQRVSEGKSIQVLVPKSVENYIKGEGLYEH
Steroidogenic factor 1, sequence (Q13285 whole entry): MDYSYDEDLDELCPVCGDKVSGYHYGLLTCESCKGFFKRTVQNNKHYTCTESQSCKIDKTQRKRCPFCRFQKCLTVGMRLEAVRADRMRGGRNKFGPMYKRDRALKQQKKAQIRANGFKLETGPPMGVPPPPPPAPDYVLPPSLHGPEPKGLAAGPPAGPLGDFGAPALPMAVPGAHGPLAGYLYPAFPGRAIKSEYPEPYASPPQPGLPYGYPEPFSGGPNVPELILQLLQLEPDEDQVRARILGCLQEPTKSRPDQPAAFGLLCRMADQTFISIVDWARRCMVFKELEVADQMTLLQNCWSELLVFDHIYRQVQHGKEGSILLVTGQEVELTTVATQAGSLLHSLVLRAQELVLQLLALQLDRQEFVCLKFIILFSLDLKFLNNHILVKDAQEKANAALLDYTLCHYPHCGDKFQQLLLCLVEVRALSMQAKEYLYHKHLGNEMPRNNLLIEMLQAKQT
T2 sequence (P63165 whole entry): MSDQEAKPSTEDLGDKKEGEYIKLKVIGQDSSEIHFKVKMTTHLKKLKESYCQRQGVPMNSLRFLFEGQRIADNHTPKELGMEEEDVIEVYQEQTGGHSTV
Adenosylmethionine-8-amino-7-oxononanoate aminotransferase, sequence (P9WQ81 whole entry, the tested form may be a part): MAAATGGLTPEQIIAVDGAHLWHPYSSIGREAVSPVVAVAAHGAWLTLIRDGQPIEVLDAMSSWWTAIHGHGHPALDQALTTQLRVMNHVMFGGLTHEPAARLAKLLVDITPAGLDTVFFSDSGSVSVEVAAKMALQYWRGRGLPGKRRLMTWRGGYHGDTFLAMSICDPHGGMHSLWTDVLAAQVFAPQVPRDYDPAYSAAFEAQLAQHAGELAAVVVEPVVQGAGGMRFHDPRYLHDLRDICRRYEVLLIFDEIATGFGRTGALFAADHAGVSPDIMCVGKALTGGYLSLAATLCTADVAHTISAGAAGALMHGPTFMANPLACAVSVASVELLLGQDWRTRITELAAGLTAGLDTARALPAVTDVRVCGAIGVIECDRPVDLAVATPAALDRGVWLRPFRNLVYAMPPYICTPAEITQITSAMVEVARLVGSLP
Nuclear receptor subfamily 5 group A member 2, sequence (O00482 whole entry): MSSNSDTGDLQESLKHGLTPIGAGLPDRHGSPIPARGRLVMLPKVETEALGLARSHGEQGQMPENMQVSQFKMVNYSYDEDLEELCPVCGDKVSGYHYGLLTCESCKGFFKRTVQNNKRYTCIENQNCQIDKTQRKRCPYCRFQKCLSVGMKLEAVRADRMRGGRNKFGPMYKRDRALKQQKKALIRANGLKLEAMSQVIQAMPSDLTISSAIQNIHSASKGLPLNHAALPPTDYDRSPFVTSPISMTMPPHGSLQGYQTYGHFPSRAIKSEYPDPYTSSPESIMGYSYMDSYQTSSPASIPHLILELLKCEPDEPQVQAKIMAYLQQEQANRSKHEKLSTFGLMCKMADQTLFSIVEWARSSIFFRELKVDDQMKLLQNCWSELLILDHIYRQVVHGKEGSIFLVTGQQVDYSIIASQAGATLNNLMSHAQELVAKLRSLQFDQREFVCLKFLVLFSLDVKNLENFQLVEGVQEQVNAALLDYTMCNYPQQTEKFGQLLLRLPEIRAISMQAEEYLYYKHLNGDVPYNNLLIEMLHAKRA
26S proteasome non-ATPase regulatory subunit 14, sequence (O00487 whole entry): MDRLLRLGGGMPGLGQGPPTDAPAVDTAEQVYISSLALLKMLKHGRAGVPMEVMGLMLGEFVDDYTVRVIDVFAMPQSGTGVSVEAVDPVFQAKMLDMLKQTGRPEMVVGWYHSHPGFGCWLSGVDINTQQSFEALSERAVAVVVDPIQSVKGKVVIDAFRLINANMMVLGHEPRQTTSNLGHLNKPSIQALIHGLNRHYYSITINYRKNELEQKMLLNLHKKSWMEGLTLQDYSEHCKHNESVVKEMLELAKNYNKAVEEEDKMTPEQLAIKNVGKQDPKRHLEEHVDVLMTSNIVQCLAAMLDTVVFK
Tyrosine-protein phosphatase non-receptor type 11, sequence (Q06124 whole entry): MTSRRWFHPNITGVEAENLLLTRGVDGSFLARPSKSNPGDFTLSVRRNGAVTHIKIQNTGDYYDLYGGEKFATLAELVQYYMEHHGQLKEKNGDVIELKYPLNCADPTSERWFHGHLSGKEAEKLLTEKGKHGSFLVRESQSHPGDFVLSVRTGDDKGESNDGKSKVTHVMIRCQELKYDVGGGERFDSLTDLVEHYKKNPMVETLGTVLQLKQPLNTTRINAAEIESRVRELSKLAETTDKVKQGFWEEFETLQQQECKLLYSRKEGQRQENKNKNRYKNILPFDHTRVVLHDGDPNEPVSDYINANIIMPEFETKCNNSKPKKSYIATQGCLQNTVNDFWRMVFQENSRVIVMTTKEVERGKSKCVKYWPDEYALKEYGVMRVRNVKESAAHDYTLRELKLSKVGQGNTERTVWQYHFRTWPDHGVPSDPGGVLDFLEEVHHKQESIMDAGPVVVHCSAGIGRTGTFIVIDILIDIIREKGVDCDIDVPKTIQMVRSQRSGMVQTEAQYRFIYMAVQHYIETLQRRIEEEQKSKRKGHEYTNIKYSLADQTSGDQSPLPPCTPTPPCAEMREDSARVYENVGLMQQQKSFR
Tyrosine-protein phosphatase non-receptor type 5, sequence (P54829 whole entry): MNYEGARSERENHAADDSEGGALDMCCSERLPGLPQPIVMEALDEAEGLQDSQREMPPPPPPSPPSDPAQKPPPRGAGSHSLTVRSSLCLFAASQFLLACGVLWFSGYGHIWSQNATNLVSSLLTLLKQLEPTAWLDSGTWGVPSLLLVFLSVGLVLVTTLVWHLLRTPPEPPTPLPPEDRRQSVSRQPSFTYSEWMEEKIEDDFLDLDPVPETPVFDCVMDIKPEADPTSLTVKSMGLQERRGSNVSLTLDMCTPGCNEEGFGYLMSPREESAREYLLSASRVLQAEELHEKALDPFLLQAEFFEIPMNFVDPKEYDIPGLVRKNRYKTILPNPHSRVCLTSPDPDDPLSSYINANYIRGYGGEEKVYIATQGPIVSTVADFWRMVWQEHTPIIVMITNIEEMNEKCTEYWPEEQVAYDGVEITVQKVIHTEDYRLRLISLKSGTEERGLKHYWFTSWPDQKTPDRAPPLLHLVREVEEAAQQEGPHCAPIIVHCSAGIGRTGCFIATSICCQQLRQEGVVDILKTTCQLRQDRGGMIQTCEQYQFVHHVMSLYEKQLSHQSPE
Eukaryotic translation initiation factor 4E, sequence (P63073 whole entry): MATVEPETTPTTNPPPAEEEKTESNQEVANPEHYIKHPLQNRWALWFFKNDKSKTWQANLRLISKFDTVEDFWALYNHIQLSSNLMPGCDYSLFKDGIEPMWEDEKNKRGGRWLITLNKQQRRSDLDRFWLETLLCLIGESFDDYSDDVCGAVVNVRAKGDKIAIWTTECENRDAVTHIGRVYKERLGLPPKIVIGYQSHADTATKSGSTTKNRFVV
Dual specificity protein phosphatase 3, sequence (P51452 whole entry): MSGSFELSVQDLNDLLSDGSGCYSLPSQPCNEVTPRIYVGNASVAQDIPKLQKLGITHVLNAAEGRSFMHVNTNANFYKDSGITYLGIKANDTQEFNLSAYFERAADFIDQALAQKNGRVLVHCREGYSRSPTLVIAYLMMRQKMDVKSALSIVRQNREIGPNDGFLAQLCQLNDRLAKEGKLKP
72 kDa type IV collagenase, sequence (P08253 whole entry): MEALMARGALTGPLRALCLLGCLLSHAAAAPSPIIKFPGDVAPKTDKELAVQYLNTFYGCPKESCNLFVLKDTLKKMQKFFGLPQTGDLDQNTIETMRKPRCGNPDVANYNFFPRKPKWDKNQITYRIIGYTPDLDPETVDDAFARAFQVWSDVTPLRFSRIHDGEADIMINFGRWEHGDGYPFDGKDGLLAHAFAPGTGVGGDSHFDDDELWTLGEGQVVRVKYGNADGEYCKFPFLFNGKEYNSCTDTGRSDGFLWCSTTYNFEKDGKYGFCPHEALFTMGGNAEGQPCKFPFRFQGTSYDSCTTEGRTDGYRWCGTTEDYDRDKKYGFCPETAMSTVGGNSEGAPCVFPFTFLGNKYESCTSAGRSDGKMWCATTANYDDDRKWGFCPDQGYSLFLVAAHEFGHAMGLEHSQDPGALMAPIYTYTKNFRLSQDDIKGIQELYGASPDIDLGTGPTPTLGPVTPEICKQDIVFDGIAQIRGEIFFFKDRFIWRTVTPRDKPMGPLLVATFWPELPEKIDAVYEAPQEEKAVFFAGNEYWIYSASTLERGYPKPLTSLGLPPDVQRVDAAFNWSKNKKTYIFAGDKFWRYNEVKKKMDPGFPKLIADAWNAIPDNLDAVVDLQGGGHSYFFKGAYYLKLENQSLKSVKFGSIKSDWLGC

SMILES: Cc1ccc(C)c(N2CCN(S(=O)(=O)c3ccc4nc(O)c(O)nc4c3)CC2)c1
- IC50 [1]: 25.9 µM (active)
- IC50 [2]: 5.39 µM (active)

SMILES: O=C(CSc1nc(-c2ccc(F)cc2)nc2c1Cc1ccccc1O2)Nc1cccc(C(=O)O)c1
- IC50 [3]: 0.353 µM (active)
- IC50 [4]: > 66.6 µM (inactive)
- IC50 [5]: 0.443 µM (active)
- IC50 [6]: 2.26 µM (active)
- IC50 [7]: 50 µM (inactive)
- IC50 [8]: 4.27 µM (active)
- IC50 [9]: > 50 µM (not active)

SMILES: Cc1cccc(C)c1Nc1nnc(SC/C(O)=C(\C#N)c2nc3ccccc3[nH]2)s1
- IC50 [1]: 25.2 µM (active)
- IC50 [2]: 9.49 µM (active)

SMILES: COc1ccccc1NC(=O)CN1CCN(CC(=O)Nc2ccc(S(N)(=O)=O)cc2)CC1
- IC50 [10]: 25.9 µM (inactive)
- IC50 (Steroidogenic factor 1): 6.64 µM (active)
- IC50 [11]: 35.9 µM (inactive)

SMILES: O=C(Nc1cccc(F)c1)C1CCCN(c2cnccn2)C1 (centres undefined)
- AC50 [12]: 5.41 µM (active)

SMILES: O=C(N/N=C/c1cc(Cl)cc([N+](=O)[O-])c1O)c1ccccc1NS(=O)(=O)c1cccs1
- EC50 [13]: 282 µM (active)
- EC50 (Protein RecA): 67.2 µM (active)
- EC50 (Streptokinase A): > 150 µM (not active)
- EC50 [14]: 4.31 µM (active)
- IC50 [15]: > 100 µM (inactive)
- IC50 (Prothrombin): 85.5 µM (active)
- EC50 (Streptococcus): 18.9 µM (active)
- IC50 [16]: 10.4 µM (active)
- EC50 [17]: 1.56 µM (inconclusive)
- AC50 [18]: 15.9 µM (active)

SMILES: CC(=O)c1ccc(NC(=O)C(C)ONC(=N)c2ccccc2)cc1 (centres undefined)
- IC50 [10]: 23.8 µM (inactive)
- IC50 (Steroidogenic factor 1): 6.11 µM (active)
- IC50 [11]: 35.9 µM (inactive)

SMILES: O=C(C[C@@H]1C[C@H]2c3cc(NC(=O)c4cccnc4)ccc3O[C@H]2[C@@H](CO)O1)NCc1cc(F)ccc1F
- AC50 [12]: 12.6 µM (active)

— ChEMBL document CHEMBL1201862, “PubChem BioAssay data set” (2004)
